Results: patent US20080262071A1 (priority 2004, published 2008)
Like-named read-outs stand apart in the source and are kept apart here.

Assays:
[1] = Single blind pilot study of pindolol in PMS (COPE diary, CGI); assay type: in vivo, human
Text: A single blind pilot study to evaluate the safety, efficacy and tolerability of pindolol in PMS was initiated at one study centre. The trial objectives were to: […] […] Twenty subjects were recruited who met the criteria for inclusion in the study. After screening subjects underwent a one month assessment period with prospective diaries (COPE, Calendar of Premenstrual Events). By calculating the subjects COPE scores in the follicular and luteal phases, a diagnosis of late luteal phase dysphoric disorder could be made. All subjects then entered the single-blind placebo treatment period and the subjects' outcome at the end of this cycle acted as their baseline assessment. Subjects were then treated with pindolol for the next three cycles and assessed using the COPE. During this three month period, subjects may have a sequential increase in dose at monthly intervals from 15 to 25 mg/day to optimize response. Provision was made for dose decreases in case of tolerability concerns. Subjects were aware that they would receive three months of active and one month of placebo but were unaware of when the placebo was administered. […] Secondary efficacy measures included; mean change from the end of the placebo period in luteal phase total COPE score; mean change from end of the placebo period in luteal phase physical COPE symptoms; mean change from the end of the luteal phase behavioral symptoms; mean change from end of the placebo period in follicular phase total COPE score; CGI improvement score at each of the three menstrual cycles.

[2] = Blood pressure after single oral dose in healthy male volunteers; assay type: in vivo, human; settings: healthy subjects
Experimental: Ten healthy male volunteers were tested on two separate occasions one week apart. On both occasions their blood pressure was measured at baseline.

5HT1a receptors = molecular target: T1, 5HT1a receptors (Homo sapiens, UniProt P08908); settings: cited from earlier work
T1 construct: host or cells: human subjects, in vivo PET
T1 sequence (P08908 1-422): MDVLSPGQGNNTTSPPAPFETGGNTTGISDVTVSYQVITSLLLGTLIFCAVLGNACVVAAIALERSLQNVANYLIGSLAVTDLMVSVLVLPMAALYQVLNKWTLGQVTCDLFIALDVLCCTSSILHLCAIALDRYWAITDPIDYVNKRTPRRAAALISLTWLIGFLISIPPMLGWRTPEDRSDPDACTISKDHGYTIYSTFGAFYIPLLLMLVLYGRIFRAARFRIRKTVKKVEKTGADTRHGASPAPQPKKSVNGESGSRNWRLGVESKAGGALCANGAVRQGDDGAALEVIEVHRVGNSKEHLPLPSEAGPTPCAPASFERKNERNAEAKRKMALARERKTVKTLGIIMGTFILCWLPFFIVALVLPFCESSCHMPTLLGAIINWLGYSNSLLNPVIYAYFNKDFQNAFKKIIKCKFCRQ

[3] = man, after administration of the racemate; cited from earlier work
[4] = meta-analysis of 14 double-blind trials; cited from earlier work
[5] = PMS subjects; cited from earlier work
[6] = luteal phase administration; cited from earlier work
[7] = Case treatment of a person with premenstrual dysphoric disorder, daily symptom diary; assay type: in vivo, human; settings: month 2, 5 mg three times daily throughout luteal phase
Text: Patient was a person with a long history of premenstrual dysphoric disorder.
Throughout each cycle, a daily diary was used to document symptoms.

[8] = PMS subjects, three cycles of pindolol

CC(C)NCC(O)COc1cccc2[nH]ccc12 (racemic) [pindolol]
tolerability ([1]; 15 to 25 mg/day): very well tolerated | withdrawals for unacceptable reductions in blood pressure ([1]; 15 to 25 mg/day): no withdrawals | CGI improvement [1, 8]: improvement in CGI | behavioral COPE scores [1, 8]: Particularly significant decreases | total COPE score ([1]; all patients treated with active drug, vs end of placebo period): decrease in the reduction of total COPE score | total COPE score ([1]; patients on doses of 15 mg and above): Significant decreases | blood pressure ([2]; 10 mg orally): definite drop in blood pressure | diastolic blood pressure ([2]; 10 mg): definite drops in diastolic blood pressure | occupancy of 5HT1a receptors (5HT1a receptors; 2.5 mg): did not generate any significant occupancy | occupancy of 5HT1a receptors (5HT1a receptors; 5.0 mg): 19% | differences between (−) and (+) pindolol in AUC, Cmax and t1/2 hrs [3]: minor differences

CC(=O)[C@H]1CC[C@H]2[C@@H]3CCC4=CC(=O)CC[C@]4(C)[C@H]3CC[C@]12C [Progesterone]
difference from placebo treatment in PMS [4]: did not find a clinically significant difference

CC(C)NCC(O)COc1ccc(CC(N)=O)cc1 (stereo not shown) [atenolol]
several other scales [5]: significant improvement was not found

CNCCC(Oc1ccc(C(F)(F)F)cc1)c1ccccc1 (stereo not shown) [fluoxetine]
efficacy in PMDD [6]: some efficacy

CN[C@H]1CC[C@@H](c2ccc(Cl)c(Cl)c2)c2ccccc21 [sertraline]
efficacy in PMDD [6]: some efficacy

S-(−)-pindolol [(−) pindolol]
mood and anxiety (daily diary) [7]: helped improve mood and reduce anxiety
